In patent US20220347175A1, “PYRIDAZINONE DERIVATIVE” (Sumitomo Dainippon Pharma Co., Ltd., priority 2018, published 2022):

Tests used:
human Nav1.5 = target: T1, human Nav1.5 (Homo sapiens, UniProt Q14524); test: Amplification of Nav1.5-derived voltage-dependent sodium current (Nav1.5 current), cell line stably expressing human Nav1.5, automated patch clamp; assay type: cell-based; settings: CHO-K1 stably expressing human Nav1.5
T1 construct: expressed in transfected cells; host or cells: CHO-K1 (T-REx System, ThermoFisher Scientific)
T1 sequence (Q14524 1-2015 isoform Q14524-2): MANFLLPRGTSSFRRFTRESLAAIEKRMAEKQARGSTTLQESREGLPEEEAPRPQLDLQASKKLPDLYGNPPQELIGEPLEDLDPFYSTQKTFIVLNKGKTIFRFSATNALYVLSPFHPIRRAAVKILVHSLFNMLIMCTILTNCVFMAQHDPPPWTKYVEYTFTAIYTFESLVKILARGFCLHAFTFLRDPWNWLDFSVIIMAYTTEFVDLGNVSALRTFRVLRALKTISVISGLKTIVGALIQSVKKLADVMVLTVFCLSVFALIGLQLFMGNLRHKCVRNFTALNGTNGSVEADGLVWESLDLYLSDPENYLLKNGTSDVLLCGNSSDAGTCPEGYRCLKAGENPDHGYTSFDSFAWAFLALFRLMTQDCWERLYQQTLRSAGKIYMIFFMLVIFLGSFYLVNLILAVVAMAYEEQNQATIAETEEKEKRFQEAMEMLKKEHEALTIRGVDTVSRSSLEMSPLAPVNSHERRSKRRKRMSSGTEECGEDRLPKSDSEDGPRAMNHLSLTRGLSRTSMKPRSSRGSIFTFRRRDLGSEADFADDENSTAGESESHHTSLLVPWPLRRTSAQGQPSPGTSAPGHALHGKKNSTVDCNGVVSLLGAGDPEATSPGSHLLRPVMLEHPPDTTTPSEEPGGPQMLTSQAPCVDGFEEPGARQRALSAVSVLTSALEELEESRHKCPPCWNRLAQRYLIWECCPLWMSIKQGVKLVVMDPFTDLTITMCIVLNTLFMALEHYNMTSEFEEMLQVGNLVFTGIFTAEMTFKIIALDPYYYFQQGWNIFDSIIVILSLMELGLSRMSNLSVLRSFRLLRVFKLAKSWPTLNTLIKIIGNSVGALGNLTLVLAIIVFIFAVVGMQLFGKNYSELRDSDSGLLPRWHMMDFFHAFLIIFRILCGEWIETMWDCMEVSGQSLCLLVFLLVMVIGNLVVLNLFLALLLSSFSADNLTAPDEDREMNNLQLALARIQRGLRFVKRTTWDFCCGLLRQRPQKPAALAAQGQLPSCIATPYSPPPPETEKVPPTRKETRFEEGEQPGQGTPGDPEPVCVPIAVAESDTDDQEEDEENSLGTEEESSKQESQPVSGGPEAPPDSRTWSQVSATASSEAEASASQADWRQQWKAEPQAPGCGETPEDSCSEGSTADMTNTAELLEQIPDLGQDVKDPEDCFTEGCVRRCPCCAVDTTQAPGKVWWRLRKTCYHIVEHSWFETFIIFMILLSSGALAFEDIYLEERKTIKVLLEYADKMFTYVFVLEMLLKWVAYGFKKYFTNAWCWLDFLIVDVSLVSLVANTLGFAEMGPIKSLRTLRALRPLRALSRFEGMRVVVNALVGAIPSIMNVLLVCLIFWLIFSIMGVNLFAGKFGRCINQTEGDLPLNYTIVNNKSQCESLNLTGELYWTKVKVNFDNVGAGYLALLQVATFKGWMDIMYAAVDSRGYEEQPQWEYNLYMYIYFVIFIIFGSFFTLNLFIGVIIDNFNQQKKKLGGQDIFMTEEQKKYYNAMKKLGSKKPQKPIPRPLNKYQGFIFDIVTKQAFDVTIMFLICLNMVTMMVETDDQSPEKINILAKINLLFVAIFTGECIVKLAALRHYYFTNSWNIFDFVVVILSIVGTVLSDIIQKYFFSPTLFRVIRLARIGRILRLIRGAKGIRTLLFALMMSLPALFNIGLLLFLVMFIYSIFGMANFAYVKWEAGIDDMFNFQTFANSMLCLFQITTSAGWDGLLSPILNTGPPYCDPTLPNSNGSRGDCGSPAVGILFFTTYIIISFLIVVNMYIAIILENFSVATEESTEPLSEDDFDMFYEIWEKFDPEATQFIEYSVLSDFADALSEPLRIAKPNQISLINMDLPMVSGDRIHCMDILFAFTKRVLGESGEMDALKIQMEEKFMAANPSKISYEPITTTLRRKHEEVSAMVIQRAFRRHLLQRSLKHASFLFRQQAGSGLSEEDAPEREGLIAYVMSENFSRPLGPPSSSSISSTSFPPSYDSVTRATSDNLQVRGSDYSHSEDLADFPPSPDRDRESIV
Description: Test 2: Evaluation of the Amplification in Nav1.5-Derived Voltage-Dependent Sodium Current (Nav1.5 Current) by Using a Cell Line Stably Expressing Human Nav1.5
A CHO-K1 cell line (Chinese hamster ovary) stably expressing human Nav1.5 (Gene Bank Accession No: P000326.2) was obtained by using purchased T-Rex System (ThermoFisher Scientific, USA), and used for the present test. The effect of test compounds on the amplification of Nav1.5 current was evaluated by using a cell line stably expressing human Nav1.5 and HTS automated patch clamp system, similarly in the method using Nav1.1. In other words, test compounds were added in an extracellular fluid which contained 1% DMSO and 500 nmol/L Tetrodotoxin (TTX), and evaluated as a change of the peak value of Nav1.5 current and the area under the curve (AUC). The induction and the measurement of Nav1.5 current, the pharmacologic effect on Nav1.5 current, and a method for pharmacological evaluation were carried out by the same method as in Nav1.1.

human Nav1.1 = target: T2, human Nav1.1 (Homo sapiens, UniProt P35498); test: Amplification of Nav1.1-derived voltage-dependent sodium current (Nav1.1 current), cell line stably expressing human Nav1.1, automated patch clamp; assay type: cell-based; settings: HEK293 stably expressing human Nav1.1
T2 construct: host or cells: HEK293
Summary of the method: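 Automated whole-cell voltage-clamp recordings used HEK293 cells stably expressing human Nav1.1, keeping only cells with >500 pA current, with currents evoked by ramp voltage. Compounds were applied in extracellular fluid with 1% DMSO, and amplification (%) was computed from peak current or AUC after versus before addition.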

Row | Compound | Nav1.5 current amplification rate (%) (human Nav1.5; compound 3 μmol/L) | Nav1.1 current amplification rate (%) (human Nav1.1; compound 3 μmol/L) | Nav1.5 current amplification rate (%) (human Nav1.5; compound 1 μmol/L) | Nav1.1 current amplification rate (%) (human Nav1.1; compound 1 μmol/L)
1 | Cc1cc(NC(=O)Cn2nc(C3=CCC(C)CC3)ccc2=O)cc2ncoc12 (racemic) [Example 323] | 11 | 154 | – | –
2 | CC1CC=C(c2ccc(=O)n(CC(=O)Nc3ccc4oc(CN(C)C)nc4c3)n2)CC1 (racemic) [Example 324] | 5 | 50 | – | –
3 | COCc1nc2cc(NC(=O)Cn3nc(C4=CCC(C)CC4)ccc3=O)ccc2o1 (racemic) [Example 325] | 10 | 233 | – | –
4 | Cc1nc2cc(NC(=O)Cn3nc(C4=CCC(C)CC4)ccc3=O)cnc2s1 (racemic) [Example 326] | 34 | 132 | – | –
5 | CC1CC=C(c2ccc(=O)n(CC(=O)Nc3ccc4oc(C(C)(C)O)nc4c3)n2)CC1 (racemic) [Example 327] | 9 | 124 | – | –
6 | CC1CC=C(c2ccc(=O)n(CC(=O)Nc3cc4nccn4cn3)n2)CC1 (racemic) [Example 328] | 21 | 58 | – | –
7 | Cc1nc2cc(NC(=O)Cn3nc(C4=CCC(C)CC4)ccc3=O)ccn2c1C (racemic) [Example 329] | 50 | 100 | – | –
8 | CC1CC=C(c2ccc(=O)n(CC(=O)Nc3ccn4ncnc4c3)n2)CC1 (racemic) [Example 330] | – | – | 47 | 191
9 | CC1CC=C(c2ccc(=O)n(CC(=O)Nc3ccc4oc(CN5CCOCC5)nc4c3)n2)CC1 (racemic) [Example 331] | 9 | 64 | – | –
10 | COC1CN(Cc2nc3cc(NC(=O)Cn4nc(C5=CCC(C)CC5)ccc4=O)ccc3o2)C1 (racemic) [Example 332] | 9 | 15 | – | –
11 | CC1CC=C(c2ccc(=O)n(CC(=O)Nc3ccc4oc(CN5CCC5)nc4c3)n2)CC1 (racemic) [Example 333] | 13 | 25 | – | –
12 | CC1CC=C(c2ccc(=O)n(CC(=O)Nc3ccn4cc(C5CC5)nc4c3)n2)CC1 (racemic) [Example 334] | 25 | 255 | – | –
13 | CC1CC=C(c2ccc(=O)n(CC(=O)Nc3ccn4c(C5CC5)cnc4c3)n2)CC1 (racemic) [Example 335] | 65 | 187 | – | –
14 | CC1CC=C(c2ccc(=O)n(CC(=O)Nc3ccn4cncc4c3)n2)CC1 (racemic) [Example 338] | – | – | 49 | 241
15 | CC1CC=C(c2ccc(=O)n(CC(=O)Nc3ccc4ncnn4c3)n2)CC1 (racemic) [Example 339] | – | – | 15 | 127
16 | CC1CC=C(c2ccc(=O)n(CC(=O)Nc3ccn4nncc4c3)n2)CC1 (racemic) [Example 342] | – | – | 52 | 109
17 | CC1CC=C(c2ccc(=O)n(CC(=O)Nc3ccc4cnnn4c3)n2)CC1 (racemic) [Example 345] | – | – | 46 | 232
18 | CC1CC=C(c2ccc(=O)n(CC(=O)Nc3ccc4nccn4n3)n2)CC1 (racemic) [Example 346] | – | – | 27 | 96
19 | Cc1cc(NC(=O)Cn2nc(C3=CCC(C)CC3)ccc2=O)cn2ncnc12 (racemic) [Example 349] | – | – | 24 | 101
20 | Cc1cc(NC(=O)Cn2nc(C3=CCC(C)CC3)ccc2=O)cc2ncnn12 (racemic) [Example 352] | – | – | 34 | 155
21 | CC1CC=C(c2ccc(=O)n(CC(=O)Nc3ccc4nccnc4c3)n2)CC1 (racemic) [Example 354] | – | – | 27 | 123
22 | CC1CC=C(c2ccc(=O)n(CC(=O)Nc3ccc4ncncc4c3)n2)CC1 (racemic) [Example 355] | – | – | 28 | 130
23 | CC1CC=C(c2ccc(=O)n(CC(=O)Nc3ccc4cncnc4c3)n2)CC1 (racemic) [Example 356] | – | – | 34 | 378
